Here are results for 23 compounds from patent EP1120414A1, “DISUBSTITUTED MALEIMIDE COMPOUNDS AND MEDICINAL UTILIZATION THEREOF” (Japan Tobacco Inc., priority 1998, dated 2000).

Where two headings read alike, the source gives them in different places.

For one test, the target named is T1, PKC β II (Homo sapiens, UniProt P05771).
T1 construct: purchased CALBIOCHEM
Briefly: PKC enzyme assay (BIOTRAK Protein kinase C enzyme assay system, 32P-ATP phosphorylation of peptide […]). Conditions: for Ratio α/β: IC50 PKC α / IC50 PKC β II. The format is biochemical. The source says:
The method for determining the PKC inhibitory activity of the compound of the present invention is explained in the following. Inasmuch as PKCβII is present in greater number in intravascular cells than PKCβI, PKCβII was mainly used here to test the enzyme activity.
(§1) As the reagent for enzyme assay, BIOTRAK Protein kinase C enzyme assay system (hereinafter the system, Amersham), and as the PKC enzyme standard product, Protein Kinase C, Human Recombinant (CALBIOCHEM) were purchased and used in the assay. A substrate mixture was prepared by mixing calcium buffer (12 mM calcium acetate, 50 mM Tris/HCl pH 7.5, 0.05% (w/v) sodium azide), Lipid (0.3 mg/ml La-phosphatidyl-L-serine, […] phorbol 12-myristate 13-acetate, 50 mM Tris/HCl pH 7.5, 0.05% (w/v) sodium azide), peptide buffer (900 µM peptide […]), 50 mM Tris/HCl pH 7.5, 0.05% (w/v) sodium azide), DTT buffer (30 mM dithiothreitol, 50 mM Tris/HCl pH 7.5, 0.05% (w/v) sodium azide), and magnesium ATP buffer (1.2 mM ATP, […] pH 7.4, 72 mM magnesium chloride) all attached to the system in a ratio of 1:1:1:1:0.8 and adding [ y -32P]ATP (Amersham, cat. […] The PKC enzyme standard product was diluted with an assay buffer (10 mM Hepes pH 7.4, 0.01% Triton X-100) to a concentration of 400 ng/ml and used as the enzyme solution. The substrate mixture and a test substance (diluted to the final concentration of 1 nM-10 µM with dimethyl sulfoxide (DMSO)) were mixed at a ratio of 20:1. The enzyme solution was added in the amount equivalent to the substrate mixture and mixed, which was followed by incubation at 37°C for 15 minutes. The reaction terminator (300 mM orthophosphoric acid containing carmosine red) attached to the system was added in the amount equivalent to the substrate mixture to end the reaction, and the reaction mixture was spotted on a phosphocellulose paper (Whatman, P-81), washed twice with 75 mM orthophosphoric acid and assayed for radioactivity by BAS2000 (Fuji film).
(§2) The ratio of the radioactivity of the addition of the test substance to the addition of DMSO was determined, and IC50 was calculated from inhibition at each concentration.

The target of another test is T2, PKC α (Homo sapiens, UniProt P17252).
T2 construct: purchased CALBIOCHEM
The description is as above. It is filed as biochemical. The method, then:
as §1, §2

[1] abbreviates: Protein Kinase C, Human Recombinant, test substance 1 nM-10 µM, 37°C, 15 minutes, read-out: Inhibition of PKC activity IC50 PKC β II.
The mark [2] stands for this setting: Protein Kinase C, Human Recombinant, test substance 1 nM-10 µM, 37°C, 15 minutes, read-out: Inhibition of PKC activity IC50 PKC α.

T1 sequence (P05771 other isoform, or with tags, fused parts or gaps): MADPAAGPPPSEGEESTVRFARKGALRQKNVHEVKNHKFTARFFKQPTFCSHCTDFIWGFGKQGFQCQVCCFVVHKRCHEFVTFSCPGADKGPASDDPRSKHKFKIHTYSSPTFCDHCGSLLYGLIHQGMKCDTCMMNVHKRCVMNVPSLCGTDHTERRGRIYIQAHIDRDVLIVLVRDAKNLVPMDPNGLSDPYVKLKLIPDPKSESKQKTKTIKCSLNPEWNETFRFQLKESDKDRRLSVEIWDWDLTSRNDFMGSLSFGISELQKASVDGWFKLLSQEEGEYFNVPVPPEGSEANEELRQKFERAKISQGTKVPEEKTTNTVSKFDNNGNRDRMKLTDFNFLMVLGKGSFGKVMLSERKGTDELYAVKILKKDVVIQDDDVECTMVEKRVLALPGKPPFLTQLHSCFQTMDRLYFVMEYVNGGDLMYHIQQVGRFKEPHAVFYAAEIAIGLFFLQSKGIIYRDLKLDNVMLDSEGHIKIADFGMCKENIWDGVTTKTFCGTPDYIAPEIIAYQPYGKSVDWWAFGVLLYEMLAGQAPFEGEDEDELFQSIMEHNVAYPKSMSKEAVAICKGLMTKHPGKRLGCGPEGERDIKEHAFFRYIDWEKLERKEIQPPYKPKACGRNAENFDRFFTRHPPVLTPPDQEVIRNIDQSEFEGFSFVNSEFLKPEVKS

Regarding `O=C1NC(=O)C(c2cn(CC(O)CO)c3ccccc23)=C1Nc1ccccc1` (centres unmarked) [Example 2-44, 3-[1-(2,3-dihydroxypropyl)-1H-indol-3-yl]-4-(phenylamino)-1H-pyrrole-2,5-dione], on PKC β II, the “Ratio α/β” value was found to be 31. Further, the IC50 (usually the midpoint of a concentration-inhibition curve) was 0.261 µM at PKC β II (setting [1]) and 8.16 µM on PKC α (setting [2]).
Taken in the same sequence, the figures for `O=C1NC(=O)C(c2cn(CCN3CCC(O)CC3)c3ccccc23)=C1Nc1ccccc1` [Example 2-47, 3-[1-{2-(4-hydroxypiperidino)ethyl}-1H-indol-3-yl]-4-(phenylamino)-1H-pyrrole-2,5-dione] were 36, 0.066 µM and 2.34 µM.
Taken in the same sequence, the figures for `O=C1NC(=O)C(c2cn(CCCN3CCC(Cc4ccccc4)CC3)c3ccccc23)=C1Nc1ccccc1` [Example 2-48, 3-[1-{3-(4-benzylpiperidino)propyl}-1H-indol-3-yl]-4-(phenylamino)-1H-pyrrole-2,5-dione] were 77, 0.018 µM and 1.39 µM.
`O=C1NC(=O)C(c2cn(CCCN3CCC(N4CCCC4)CC3)c3ccccc23)=C1Nc1ccccc1` [Example 2-49, 3-[1-(3-(4-pyrrolidinylpiperidino)propyl}-1H-indol-3-yl]-4-(phenylamino)-1H-pyrrole-2,5-dione]: the half-inhibitory concentration (IC50) against PKC β II is 0.008 µM; on PKC α, 0.723 µM.
In the case of `O=C1NC(=O)C(c2cn(CCCN3CCC(CO)CC3)c3ccccc23)=C1Nc1ccccc1` [Example 2-50, 3-[1-{3-[4-(hydroxymethyl)piperidino]propyl}-1H-indol-3-yl]-4-(phenylamino)-1H-pyrrole-2,5-dione], the “Ratio α/β” value on PKC β II is on record as 47. Also, the IC50 at PKC β II (setting [1]) amounted to 0.019 µM; on PKC α (setting [2]), 0.886 µM.
As to `CC(C)(C)OC(=O)C1CCN(CCCn2cc(C3=C(Nc4ccccc4)C(=O)NC3=O)c3ccccc32)CC1` [Example 2-51, 3-[1-{3-[4-(tert-butoxycarbonyl)piperidino]propyl}-1H-indol-3-yl]-4-(phenylamino)-1H-pyrrole-2,5-dione], on PKC β II, the “Ratio α/β” value is 38. The figures for the IC50 on PKC β II (setting [1]) and at PKC α (setting [2]) were 0.027 µM and 1.02 µM, respectively.
In the case of `Cc1c(C2=C(Nc3ccccc3)C(=O)NC2=O)c2ccccc2n1CCCN1CCCCC1` [Example 2-53, 3-[2-methyl-1-(3-piperidinopropyl)-1H-indol-3-yl]-4-(phenylamino)-1H-pyrrole-2,5-dione], at PKC β II, the “Ratio α/β” value is listed as 102. The IC50 is 0.098 µM on PKC β II (setting [1]) and > 10 µM on PKC α (setting [2]).
Taken in the same sequence, the figures for `Cc1c(C2=C(Nc3ccccc3)C(=O)NC2=O)c2ccccc2n1CCCN(C)C` [Example 2-54, 3-[1-(3-dimethylaminopropyl)-2-methyl-1H-indol-3-yl]-4-(phenylamino)-1H-pyrrole-2,5-dione] were 109, 0.061 µM and 6.67 µM.
In the case of `Cc1c(C2=C(Nc3ccccc3)C(=O)NC2=O)c2ccccc2n1CCCN1CCCC1` [Example 2-55, 3-[2-methyl-1-(3-pyrrolidin-1-ylpropyl)-1H-indol-3-yl]-4-(phenylamino)-1H-pyrrole-2,5-dione], at PKC β II, the “Ratio α/β” value was determined as 104. Besides, the IC50 is 0.096 µM on PKC β II (setting [1]) and > 10 µM at PKC α (setting [2]).
Turning to `CCN(C)CCCn1c(C)c(C2=C(Nc3ccccc3)C(=O)NC2=O)c2ccccc21` [Example 2-56, 3-[1-{3-(ethylmethylamino)propyl}-2-methyl-1H-indol-3-yl]-4-(phenylamino)-1H-pyrrole-2,5-dione], the “Ratio α/β” value at PKC β II was determined as 65. In addition, the IC50 at PKC β II (setting [1]) came to 0.084 µM; on PKC α (setting [2]), 5.49 µM.
Regarding `Cc1cn(CCCn2cc(C3=C(Nc4cccc(Cl)c4)C(=O)NC3=O)c3ccccc32)cn1` [Example 2-58, 3-[(3-chlorophenyl)amino]-4-[1-{3-(4-methyl-imidazol-1-yl)propyl}-1H-indol-3-yl]-1H-pyrrole-2,5-dione], the “Ratio α/β” value on PKC β II is 47. The IC50 on PKC β II (setting [1]) is 0.018 µM; at PKC α (setting [2]), 0.842 µM.
On the same counts, the results for `Cc1cncn1CCCn1cc(C2=C(Nc3cccc(Cl)c3)C(=O)NC2=O)c2ccccc21` [Example 2-59, 3-[(3-chlorophenyl)amino]-4-[1-{3-(5-methyl-imidazol-1-yl)propyl}-1H-indol-3-yl]-1H-pyrrole-2,5-dione] are 45, 0.008 µM and 0.356 µM.
Consider `Cc1nccn1CCCn1cc(C2=C(Nc3ccccc3)C(=O)NC2=O)c2ccccc21` [Example 2-61, 3-[1-{3-(2-methylimidazol-1-yl)propyl}-1H-indol-3-yl]-4-(phenylamino)-1H-pyrrole-2,5-dione], for which, on PKC β II, the “Ratio α/β” value came to 45. The results for the IC50 on PKC β II (setting [1]) and at PKC α (setting [2]) were 0.009 µM and 0.401 µM, respectively.
Consider `O=C1NC(=O)C(c2cn(CCn3ccnc3)c3ccccc23)=C1Nc1ccccc1` [Example 2-62, 3-[1-(2-imidazol-1-ylethyl)-1H-indol-3-yl]-4-(phenylamino)-1H-pyrrole-2,5-dione], for which, at PKC β II, the “Ratio α/β” value was 55. In addition, the values for the IC50 at PKC β II (setting [1]) and at PKC α (setting [2]) were 0.081 µM and 4.43 µM, respectively.
In the case of `Cc1nccn1CCn1cc(C2=C(Nc3ccccc3)C(=O)NC2=O)c2ccccc21` [Example 2-63, 3-[1-{2-(2-methyl-imidazol-1-yl)ethyl}-1H-indol-3-yl]-4-(phenylamino)-1H-pyrrole-2,5-dione], the “Ratio α/β” value on PKC β II is on record as 29. The IC50 at PKC β II (setting [1]) was 0.247 µM; at PKC α (setting [2]), 7.12 µM.
As for `O=C1NC(=O)C(c2cn(CCCn3ccnc3)c3ccccc23)=C1Nc1ccc(Cl)cc1` [Example 2-64, 3-[(4-chlorophenyl)amino]-4-[1-(3-imidazol-1-ylpropyl)-1H-indol-3-yl]-1H-pyrrole-2,5-dione], the “Ratio α/β” value at PKC β II stood at 37. The values for the IC50 on PKC β II (setting [1]) and at PKC α (setting [2]) were 0.02 µM and 0.739 µM, respectively.
On to `COc1ccc(NC2=C(c3cn(CCCn4ccnc4)c4ccccc34)C(=O)NC2=O)cc1` [Example 2-65, 3-[1-(3-imidazol-1-ylpropyl)-1H-indol-3-yl]-4-[(4-metholyphenyl)amino]-1H-pyrrole-2,5-dione], for which the “Ratio α/β” value at PKC β II is given as 47. Moreover, the half-maximal inhibitory concentration (IC50) on PKC β II (setting [1]) turned out to be 0.01 µM; at PKC α (setting [2]), 0.473 µM.
As for `O=C1NC(=O)C(c2cn(CCCn3ccnc3)c3ccccc23)=C1Nc1ccc(Br)cc1` [Example 2-66, 3-[(4-bromophenyl)amino]-4-[1-(3-imidazol-1-ylpropyl)-1H-indol-3-yl]-1H-pyrrole-2,5-dione], the “Ratio α/β” value at PKC β II was 34. For the same compound, the IC50 on PKC β II (setting [1]) was determined as 0.027 µM; on PKC α (setting [2]) it was 0.908 µM.
On the same counts, the results for `O=C1NC(=O)C(c2cn(CCCn3ccnc3)c3ccccc23)=C1Nc1ccc(F)cc1` [Example 2-68, 3-[(4-fluorophenyl)amino]-4-[1-(3-imidazol-1-ylpropyl)-1H-indol-3-yl]-1H-pyrrole-2,5-dione] are 53, 0.006 µM and 0.315 µM.
On the same counts, the results for `Cc1c(C2=C(Nc3ccccc3)C(=O)NC2=O)c2ccccc2n1CCCn1ccnc1` [Example 2-69, 3-[1-(3-imidazol-1-ylpropyl)-2-methyl-1H-indol-3-yl]-4-(phenylamino)-1H-pyrrole-2,5-dione] are 117, 0.02 µM and 2.35 µM.
As for `O=C1NC(=O)C(c2cn(CC3CCCNC3)c3ccccc23)=C1Nc1ccccc1` (centres unmarked) [Example 3-1, 3-(phenylamino)-4-[1-(3-piperidylmethyl)-1H-indol-3-yl]-1H-pyrrole-2,5-dione], on PKC β II, the “Ratio α/β” value is given as 27. The results for the IC50 on PKC β II (setting [1]) and at PKC α (setting [2]) were 0.018 µM and 0.484 µM, respectively.
Regarding `O=C1NC(=O)C(c2cn(CC3CCNCC3)c3ccccc23)=C1Nc1ccccc1` [Example 3-2, 3-(phenylamino)-4-[1-(4-piperidylmethyl)-1H-indol-3-yl]-1H-pyrrole-2,5-dione], the “Ratio α/β” value on PKC β II was 19. Besides, the IC50 was 0.016 µM at PKC β II (setting [1]) and 0.298 µM on PKC α (setting [2]).
On the same counts, the results for `CN1CCCC(Cn2cc(C3=C(Nc4ccccc4)C(=O)NC3=O)c3ccccc32)C1` (centres unmarked) [Example 3-3, 3-[1-{(1-methylpiperidin-3-yl)methyl}-1H-indol-3-yl]-4-(phenylamino)-1H-pyrrole-2,5-dione] are 47, 0.057 µM and 2.65 µM.
